Earlier results, collected in patent US8071607B2, “Mnk1 or Mnk2 inhibitors” (Boehringer Ingelheim International GmbH, priority 2004, dated 2011).

Legend:
[1] = tested on: Mnk2 (Mnk2a or Mnk2b); details: cell culture cells transfected with Mnk2 (Mnk2a or Mnk2b)
[2] = biological target: Mnk1 (Homo sapiens, UniProt Q9BUB5); details: cell culture cells transfected with Mnk1
[3] = biological target: human Mnk2 protein (Homo sapiens, UniProt Q9HBH9); details: described in WO 02/103361
Chain of human Mnk2 protein (Q9HBH9 whole entry): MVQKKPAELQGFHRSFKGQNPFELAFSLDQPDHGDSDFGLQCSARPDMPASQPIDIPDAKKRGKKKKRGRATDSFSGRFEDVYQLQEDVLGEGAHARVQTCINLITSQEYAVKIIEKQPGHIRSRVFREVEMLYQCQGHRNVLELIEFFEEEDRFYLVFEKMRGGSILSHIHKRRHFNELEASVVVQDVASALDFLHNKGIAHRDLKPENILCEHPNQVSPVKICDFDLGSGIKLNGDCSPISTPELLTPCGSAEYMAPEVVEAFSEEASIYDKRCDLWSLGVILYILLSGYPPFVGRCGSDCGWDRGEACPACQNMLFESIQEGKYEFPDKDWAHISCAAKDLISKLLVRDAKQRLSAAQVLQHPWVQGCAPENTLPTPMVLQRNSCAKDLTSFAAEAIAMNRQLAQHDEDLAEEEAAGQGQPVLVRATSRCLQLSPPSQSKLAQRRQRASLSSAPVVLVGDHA

Chain of Mnk1 (Q9BUB5 whole entry): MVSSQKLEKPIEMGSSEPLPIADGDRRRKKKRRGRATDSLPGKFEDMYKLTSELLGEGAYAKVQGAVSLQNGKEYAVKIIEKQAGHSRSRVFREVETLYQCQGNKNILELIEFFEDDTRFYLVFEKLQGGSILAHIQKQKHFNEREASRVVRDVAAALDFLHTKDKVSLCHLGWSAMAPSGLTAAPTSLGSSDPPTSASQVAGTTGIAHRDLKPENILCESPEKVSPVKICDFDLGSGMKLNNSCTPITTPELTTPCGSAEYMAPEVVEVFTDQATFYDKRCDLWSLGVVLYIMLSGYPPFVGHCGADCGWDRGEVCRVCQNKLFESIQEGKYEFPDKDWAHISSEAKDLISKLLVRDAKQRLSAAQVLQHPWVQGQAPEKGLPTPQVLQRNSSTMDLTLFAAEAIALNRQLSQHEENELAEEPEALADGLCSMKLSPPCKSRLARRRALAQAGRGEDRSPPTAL

Compound	phosphorylated eIF4E [1]	phosphorylated eIF4E [2]	binding to the human Mnk2 protein [3]
Nc1ncnc2n[nH]c(Nc3ccc(F)cc3)c12 [CGP57380]	strong reduction	strong reduction	–
COC(=O)c1ccc(O)cc1 [4-hydroxybenzoic acid methyl ester]	–	–	binds
